# Measurements reported in patent US6130243A, “1,4-benzodioxin derivatives” (Nisshin Flour Milling Co., Ltd., priority 1995, dated 2000).
# Counter-ions that a name gives are not always drawn.
# What was measured:
# β3 [1] = molecular target: T1, β3 (Rattus norvegicus, UniProt P26255); assay: β3 agonisitic activity in rats (stimulation of adipocyte lipolysis, rat epididymal fat pads); type: cell-based; conditions: rat adipocytes, 37° C., 120 minutes; EC50 relative to compound's own maximum rate of lipolysis; hydrochloride; read-out: Lipolysis Molar EC50 value
# T1 construct: determined by their activity to stimulate adipocyte lipolysis; from tissue; host or cells: adipocytes isolated with collagenase from rat epididymal fat pads
# Protocol: β3 agonisitic activity in rats
# The β3 agonisitic effect of the compounds of the present invention was determined by their activity to stimulate adipocyte lipolysis. Rat epididymal fat pads were excised and placed in a buffer containing the following composition: 130 mM sodium chloride, 4.7 mM potassium chloride, 1.25 mM magnesium sulfate, 2.8 mM calcium chloride, 10 mM HEPES, 2.5 mM sodium dihydrogenphosphate, 1 g/l glucose and 1% fatty acid-free serum albumin (pH 7.6). All the following procedures were carried out in the above-mentioned buffer. 5 g of a tissue was transferred to a plastic bottle with 10 ml of the buffer solution in which 0.1% collagenase (available from Worthington Biochemical corporation) was added.
# The tissue was incubated at 37° C. for about 75 minutes with gentle shaking. After the cell suspension was filtered through nylon meshes (No. 100), the cells were washed three times with two volumes of the buffer, and it was again filtered through nylon meshes. The volume was adjusted with the buffer so that the adipocyte was brought to 20% volume. A 0.1 ml aliquot of the cell suspension was added to plastic test tubes with 0.3 ml of the buffer containing vehicle or compound. The cells were incubated at 37° C. for 120 minutes with gentle shaking. The reaction solution (0.3 ml) was transferred to a centrifuge tube with […] of silicone oil (specific gravity 0.96, available from Shinetsu Chemical Industry), centrifuged at 18,500×g for one minute, and the reaction was stopped by removing the adipocyte from the buffer.
# The amount of glycerol generated from the hydrolysis of triglycerides in the buffer was determined by a method using glycerol-3-phosphate oxidase/p-chlorophenol. […] of the buffer was added to a 96-well plate which contained 0.2 ml of an assay mixture having the following composition: 50 mM Tris (pH 7.5), 5.4 mM p-chlorophenol, 250 mg/ml adenosine-5'-triphosphate disodium, 150 mg 4-aminoantipyrine, 250 U/l glycerol kinase, 500 U/l glycerol-3-phosphate oxidase, 1250 U/l horseradish peroxidase. The plate was incubated at 37° C. for 15 minutes, and then an absorbance at 505 nm was determined. The molar EC50 value is the molar concentration of compound that gives 50% of that compound's own maximum rate of lipolysis.
# human β3 receptor = molecular target: T2, human β3 receptor (Homo sapiens, UniProt P13945); assay: β3 agonistic activity on human β3 receptor (cAMP production in SK-N-MC human neuroblastoma cells); type: cell-based; conditions: 0.5 h, 10^-6 M, 37° C., 30 minutes, vs maximum of isopreterenol at 10^-6 M, hydrochloride, read-out: Ability of cAMP production at 10^-6 M, % (vs. Isopreterenol (ISP))
# T2 construct: The human neuroblastoma cells (SK-N-MC) was available from American Type Culture Collection (HTB 10); host or cells: SK-N-MC human neuroblastoma cells
# Protocol: β3 agonistic activity on human β3 receptor
# The β3 agonistic activity of the compounds was determined by their abilities to stimulate the intracellular cAMP production of human neuroblast. The human neuroblastoma cells (SK-N-MC) was available from American Type Culture Collection (HTB 10), and the cells were cultured under the atmosphere of 5% CO2 at 37° C. on a 12-well plate in Dulbeccos' modified Eagle's medium containig 10% fetal calf serum. The SK-N-MC cells on reaching semi-confluence were washed twice with 1 ml of Hank's balanced salt solution (HBSS). After the cells were treated with 0.8 ml of HBSS containing 0.25 mM isobutylmethyl-xanthine at room temperature for 5 minutes, 0.1 ml of a test solution was added. Further, after incubation at 37° C. for 30 minutes, the reaction solution was aspirated, and washed twice with 2 ml of an ice-cooled phosphate-buffered saline (PBS). The cells were disrupted with 5 mM Tris buffer (pH 7.4) containing 2 mM EDTA, centrifuged at 18,500×g for one minute, and cAMP concentration in the supernatant was determined by EIA kit (available from Amersham). The ability of cAMP production was determined as a percentage of the compound to maximum activity of cAMP production of isopreterenol at 10^-6 M concentration (Proc. Natl. Acad. Sci. USA, 90, 3665, 1993).
# [2] = tested on: animal models of type II diabetes; conditions: in vivo; cited from earlier work
# [3] = in vivo; cited from earlier work
# [4] = tested on: male KKAy mice with hyperglycemia; assay: Anti-hyperglycemic activity in male KKAy mice; type: in vivo, mouse; conditions: 1 mg/kg, orally for 4 days, measured on 5th day; hydrochloride
# Protocol: The anti-hyperglycemic effect of the present compounds was determined using male KKAy mice with hyperglycemia of 300 mg/dl or more. The compound was orally administrated successively to the hyperglycemic mice for 4 days, and the blood glucose level was measured on the 5th day. The activity of the compounds was compared in terms of percent reduction in blood glucose level (a percentage of the blood glucose level after administration to that before administration). The measurement of blood glucose level was made by the method in which tail vein of mice was dissected with a scalpel and the blood was dropped onto an electrode of glucose sensor (Touekou Super, available from Kodama).
# β3 [5] = molecular target: T1, β3; conditions: Nature, Vol. 309, 163, 1984; cited from earlier work
# β3 [6] = conditions: cited from earlier work
# β1 or β2 = conditions: thought to cause side-effects; cited from earlier work
# T2 sequence (P13945 whole entry): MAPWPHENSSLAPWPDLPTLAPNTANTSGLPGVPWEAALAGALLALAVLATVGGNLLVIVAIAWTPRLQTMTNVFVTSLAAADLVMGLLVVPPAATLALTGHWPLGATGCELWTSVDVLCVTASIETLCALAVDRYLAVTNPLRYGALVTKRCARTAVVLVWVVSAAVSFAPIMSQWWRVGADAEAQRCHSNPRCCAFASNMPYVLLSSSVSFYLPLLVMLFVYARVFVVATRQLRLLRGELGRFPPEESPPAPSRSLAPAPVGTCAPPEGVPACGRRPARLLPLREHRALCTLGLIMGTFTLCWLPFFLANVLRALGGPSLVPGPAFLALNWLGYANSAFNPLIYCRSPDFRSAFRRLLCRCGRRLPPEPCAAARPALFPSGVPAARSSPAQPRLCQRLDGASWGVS
# T1 sequence (P26255 whole entry): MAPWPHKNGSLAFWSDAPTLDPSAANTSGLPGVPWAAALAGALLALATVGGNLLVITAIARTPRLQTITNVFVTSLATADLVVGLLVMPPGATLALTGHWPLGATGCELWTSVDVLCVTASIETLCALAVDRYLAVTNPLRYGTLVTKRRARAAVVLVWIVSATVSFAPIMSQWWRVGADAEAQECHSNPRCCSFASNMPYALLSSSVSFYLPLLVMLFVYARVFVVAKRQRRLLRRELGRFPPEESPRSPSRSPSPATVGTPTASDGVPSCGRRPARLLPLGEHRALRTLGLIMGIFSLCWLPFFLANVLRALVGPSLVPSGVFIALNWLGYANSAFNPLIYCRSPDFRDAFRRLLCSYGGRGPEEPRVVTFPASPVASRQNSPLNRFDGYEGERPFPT
Structure (SMILES),EC50 (β3 [1]),"Percent reduction in blood glucose level, % [4]",also measured
"COC(=O)C1COc2cc(CC(C)NCC(O)c3cccc(C)c3)ccc2O1 (stereo not drawn) [Example 2, 6-{2-[2-Hydroxy-2-(3-tolyl)ethyl]amino}propyl-2,3-dihydro-1,4-benzodioxin-2-carboxylic acid methyl ester]",0.004 µM,,Emax at 1 µM (human β3 receptor): 25%
"COC(=O)C1COc2cc(CC(C)NCC(O)c3cccc(C(F)(F)F)c3)ccc2O1 (stereo not drawn) [Example 11, 6-{2-[2-Hydroxy-2-(3-trifluoromethylphenyl)ethyl]amino}propyl-2,3-dihydro-1,4-benzodioxin-2-carboxylic acid methyl ester]",0.0024 µM,,
C[C@H](Cc1ccc(OCC(=O)O)cc1)NC[C@H](O)c1cccc(Cl)c1 (relative stereo) [BRL 37344],,,"anti-hyperglycemic activity, in words [2]: anti-hyperglycemic activity; anti-obesity activity, in words [3]: anti-obesity activity"
"COC(=O)C1COc2cc(CC(C)NCC(O)c3ccc(F)cc3)ccc2O1 (stereo not drawn) [Example 12, 6-{2-[2-Hydroxy-2-(4-fluorophenyl)ethyl]amino}propyl-2,3-dihydro-1,4-benzodioxin-2-carboxylic acid methyl ester]",0.026 µM,,Emax at 1 µM (human β3 receptor): 29%
"CCOC(=O)[C@@H]1COc2cc(C[C@H](C)NC[C@H](O)c3cccc(Cl)c3)ccc2O1 [Example 31, (2S,2'S,2""R)-6-{2-[2-(3-Chlorophenyl)-2-hydroxyethyl]amino}propyl-2,3-dihydro-1,4-benzodioxin-2-carboxylic acid ethyl ester]",0.1 µM,,
"COC(=O)C1COc2cc(CC(C)NCC(O)c3cccc(Cl)c3)ccc2O1 (stereo not drawn) [Example 10, 6-{2-[2-(3-Chlorophenyl)-2-hydroxyethyl]amino}propyl-2,3-dihydro-1,4-benzodioxin-2-carboxylic acid methyl ester]",,48%,Emax at 1 µM (human β3 receptor): 43%
"CCOC(=O)C1COc2ccc(CC(C)NCC(O)c3ccccc3)cc2O1 (stereo not drawn) [Example 4, 7-[2-(2-Hydroxy-2-phenylethyl)amino]propyl-2,3-dihydro-1,4-benzodioxin-2-carboxylic acid ethyl ester]",0.056 µM,,
COC(=O)COc1ccc(C[C@@H](C)NC[C@H](O)c2cccc(Cl)c2)cc1 (relative stereo) [BRL 35135],,,"lipolytic activity (β3) in rats, in words (β3 [5]): lipolytic activity (β3) in rats; β3 agonistic activity, in words (β3 [6]): has β3 agonistic activity; β1 or β2 agonistic activity, in words (β1 or β2): has β1 or β2 agonistic activity; anti-hyperglycemic activity, in words [2]: anti-hyperglycemic activity; anti-obesity activity, in words [3]: anti-obesity activity"
"CCOC(=O)[C@@H]1COc2cc(C[C@@H](C)NC[C@H](O)c3cccc(Cl)c3)ccc2O1 [Example 30, (2S,2'R,2""R)-6-{2-[2-(3-Chlorophenyl)-2-hydroxyethyl]amino}propyl-2,3-dihydro-1,4-benzodioxin-2-carboxylic acid ethyl ester]",0.016 µM,,
"COC(=O)C1COc2cc(CC(C)NCC(O)c3cccc(OC)c3)ccc2O1 (stereo not drawn) [Example 1, 6-{2-[2-Hydroxy-2-(3-methoxyphenyl)ethyl]amino}propyl-2,3-dihydro-1,4-benzodioxin-2-carboxylic acid methyl ester]",0.046 µM,53%,Emax at 1 µM (human β3 receptor): 21%
"CCOC(=O)[C@H]1COc2cc(C[C@@H](C)NC[C@H](O)c3cccc(Cl)c3)ccc2O1 [Example 28, (2R,2'R,2""R)-6-{2-[2-(3-Chlorophenyl)-2-hydroxyethyl]amino}propyl-2,3-dihydro-1,4-benzodioxin-2-carboxylic acid ethyl ester hydrochloride]",0.0001 µM,42%,
"CCOC(=O)C1COc2cc(CC(C)NCC(O)c3ccccc3)ccc2O1 (stereo not drawn) [Example 3, 6-[2-(2-Hydroxy-2-phenylethyl)amino]propyl-2,3-dihydro-1,4-benzodioxin-2-carboxylic acid ethyl ester]",0.009 µM,63%,
"CCOC(=O)[C@H]1COc2cc(C[C@H](C)NC[C@H](O)c3cccc(Cl)c3)ccc2O1 [Example 29, (2R,2'S,2""R)-6-{2-[2-(3-Chlorophenyl)-2-hydroxyethyl]amino}propyl-2,3-dihydro-1,4-benzodioxin-2-carboxylic acid ethyl ester]",0.0017 µM,54%,
"COC(=O)C1COc2cc(CC(C)NCC(O)c3ccc4c(c3)OCO4)ccc2O1 (stereo not drawn) [Example 5, 6-[2-(2-Hydroxy-2-piperonylethyl)amino]propyl-2,3-dihydro-1,4-benzodioxin-2-carboxylic acid methyl ester]",0.1 µM,,
